Source: patent US11492325B2, “Compounds as inhibitors of sodium channels” (Human BioMolecular Research Institute, priority 2016, dated 2022)
Blank lines part the entries; values can stand above or below the molecule they belong to.

Key:
[1] = biological target: Nav1.5 sodium channel transfected into HEK293 cells (Homo sapiens, UniProt Q14524); assay: in vitro
Outline: (§1)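 Conventional whole-cell patch clamp was performed on HEK293 cells transfected with Nav1.5 and plated on 0.1% gelatin-coated dishes. Values were reported as IC50 ± STD.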

[2] = biological target: Nav1.5 sodium channel, peak current (INaP) (Homo sapiens, UniProt Q14524, form not given); assay: in vitro; conditions: Peak Na+ (INaP) IC50
Outline: as §1

Male BALBc mice = conditions: mice, i.p.
Source text: Male BALBc mice (20-22 g) were used throughout these studies. The animals were maintained in a temperature-controlled room with 12-hr periods of light and darkness and had continuous access to water and animal food. […] Groups contained 2-4 animals.

[3] = Solubility (water; 10:30:60% DMSO:PEG400:water vehicle); type: physicochemical
[4] = system: normal human induced pluripotent stem cell (hiPSC) cardiomyocyte
[5] = system: cardiomyocytes derived from hiPSCs from a LQTS3 patient
[6] = biological target: T1, hERG potassium channel (IKr) (Homo sapiens, UniProt Q12809)
[7] = system: cardiomyocytes derived from hiPSCs from a LQTS3 patient; assay: cells; conditions: Homo sapiens, Cardiomyocyte, read-out: LQT-IC50 (uM)-Shortening
[8] = biological target: T1, hERG potassium channel (IKr); assay: Automated patch clamp, hERG (IKr) expressed in CHO cells; conditions: hERG (IKr) IC50, CHO cells, Example 2
[9] = Metabolism in human hepatic S9; conditions: 0.5 mg of protein
Protocol: (§2) A typical incubation contained rat, mouse, dog or human liver microsomes (0.4-0.5 mg of protein), 100 mM potassium phosphate buffer (pH7.4), 50 μM test compound, an NADPH-generating system consisting of 0.5 mM NADP^+, 0.5 mM glucose-6-phosphate, 1 IU/mL glucose-6-phosphate dehydrogenase, 1 mg/mL diethylenetriaminepentaaceticacid (DETAPAC), and 3 mM MgCl2 in a final incubation volume of 0.25 mL. […] After centrifugation at 3000 rpm for 5 min, the organic fraction was collected, the solvent was removed with a stream of argon and the residue was reconstituted in 125 μL of MeOH and 125 μL H2O, mixed thoroughly, centrifuged at 13,000 rpm for 5 min and analyzed by high performance liquid chromatography. Samples were run on a Hitachi D-7000 HPLC system using a L-7100 analytical pump, L-7400 UV-Visible variable wavelength detector, and L-7600 automatic sample injector. […] Disappearance of the analyte was monitored over time. A plot of the area under the curve for the normalized analyte versus time afforded the half-life values and kapp.
(§3) Microsomes contain CYPs and FMO metabolic enzymes. S9 contains soluble enzymes (i.e., aldehyde oxidase, MAO, etc.).

[10] = Metabolism in rat hepatic S9; type: in vitro ADME; conditions: 0.5 mg of protein
Protocol: as §2, §3

[11] = Metabolism in dog hepatic S9; type: in vitro ADME; conditions: 0.5 mg of protein
Protocol: as §2, §3

[12] = Metabolism in mouse hepatic S9; conditions: 0.5 mg of protein
Protocol: as §2, §3

[13] = Metabolic stability in human liver microsomes; type: in vitro ADME; conditions: human, liver microsomes, pH 7.4, 50 μM, NADPH-generating system, 37° C.; read-out: Liver Microsomes t1/2 Human
Protocol: as §2

[14] = Metabolic stability in mouse liver microsomes; type: in vitro ADME; conditions: mouse, liver microsomes, pH 7.4; 50 μM, NADPH-generating system, 37° C.; read-out: Liver Microsomes t1/2 Mouse
Protocol: as §2

[15] = Metabolic stability in rat liver microsomes; type: in vitro ADME; conditions: rat, liver microsomes, pH 7.4; 50 μM, NADPH-generating system, 37° C.; read-out: Liver Microsomes t1/2 Rat
Protocol: as §2

T1 sequence (Q12809 whole entry): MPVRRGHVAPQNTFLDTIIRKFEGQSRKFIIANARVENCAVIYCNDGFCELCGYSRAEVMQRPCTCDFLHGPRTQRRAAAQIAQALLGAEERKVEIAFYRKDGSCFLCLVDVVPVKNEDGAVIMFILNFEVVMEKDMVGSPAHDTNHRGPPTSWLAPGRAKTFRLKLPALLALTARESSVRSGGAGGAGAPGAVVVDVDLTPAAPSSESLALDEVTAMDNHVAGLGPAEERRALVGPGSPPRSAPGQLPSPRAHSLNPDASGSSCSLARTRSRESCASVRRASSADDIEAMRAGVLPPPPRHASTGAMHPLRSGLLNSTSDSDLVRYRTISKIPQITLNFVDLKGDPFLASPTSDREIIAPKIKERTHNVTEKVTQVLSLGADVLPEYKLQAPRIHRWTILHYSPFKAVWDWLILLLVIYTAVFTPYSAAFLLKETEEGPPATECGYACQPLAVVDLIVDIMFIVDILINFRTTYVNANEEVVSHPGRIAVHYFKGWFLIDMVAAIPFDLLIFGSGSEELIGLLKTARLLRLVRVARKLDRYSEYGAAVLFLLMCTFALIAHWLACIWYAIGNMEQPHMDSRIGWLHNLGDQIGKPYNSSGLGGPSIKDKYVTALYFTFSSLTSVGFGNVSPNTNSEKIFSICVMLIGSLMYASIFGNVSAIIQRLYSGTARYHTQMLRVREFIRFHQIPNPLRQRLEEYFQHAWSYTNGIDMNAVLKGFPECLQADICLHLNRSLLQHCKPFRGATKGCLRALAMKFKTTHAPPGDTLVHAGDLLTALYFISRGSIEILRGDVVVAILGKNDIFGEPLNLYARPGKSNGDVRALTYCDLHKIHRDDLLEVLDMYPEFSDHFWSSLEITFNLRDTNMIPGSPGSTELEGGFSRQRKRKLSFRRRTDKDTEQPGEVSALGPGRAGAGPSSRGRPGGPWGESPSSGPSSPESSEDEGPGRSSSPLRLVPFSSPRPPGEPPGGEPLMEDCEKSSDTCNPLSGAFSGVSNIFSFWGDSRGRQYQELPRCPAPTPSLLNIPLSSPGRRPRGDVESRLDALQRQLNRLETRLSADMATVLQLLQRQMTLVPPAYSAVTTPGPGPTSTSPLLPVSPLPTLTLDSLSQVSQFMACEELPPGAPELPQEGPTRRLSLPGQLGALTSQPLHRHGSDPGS

Compound: Cc1ccncc1OCC(N)c1ccccc1.Cl (centres unmarked) [Compound 88]
IC50 [1]: 1.04 µM
DNap/NaL ([1]; ratio peak/late IC50, Example 2): 87.4
IC50 [2]: 90.9 µM
behavioral/toxic effects at 200 mg/kg (Male BALBc mice; 200 mg/kg): slight lethargy
tolerability (Male BALBc mice; 30-100 mg/kg, 24 hr): well-tolerated
solubility (in words) [3]: good solubility
Cessation of Beating [4]: None
WT-Fold Prolongation ([4]; APD, normal hiPSC cardiomyocytes): 1.52
LQT-Cessation Dose [5]: None
LQT-Fold Shortening ([5]; LQT3 cardiomyocytes): 1.287
DKr/NaL [6]: 10.7
DNaP/Kr [6]: 7.7
IC50 [7]: 12.8 µM
IC50 [8]: 11.2 µM

% Metabolism Human S9 [9]: 7.0 ± 0.1%
% Metabolism Rat S9 [10]: 97.8 ± 19.5%
% Metabolism Dog S9 [11]: 98.0 ± 28.1%
% Metabolism Mouse S9 [12]: 34.6%
Compound: Cc1ccccc1OCC(N)c1ccccc1 (centres unmarked) [drawing 307]

half-life at 50 μM [13]: 2.35 h
half-life at 50 μM [14]: 3.47 h
half-life at 50 μM [15]: 7.92 h
Compound: Cc1ccccc1OCC(N)c1ccccc1 (centres unmarked) [drawing 303]

Compound: NC(COc1ccccc1C(F)(F)F)c1ccccc1 (centres unmarked) [drawing 308]
% Metabolism Human S9 [9]: 28.0 ± 7.4%
% Metabolism Rat S9 [10]: 15.4 ± 10.5%
% Metabolism Dog S9 [11]: 51.0 ± 19.1%
% Metabolism Mouse S9 [12]: 55.0 ± 22.4%

Compound: NC(COc1cc(C(F)(F)F)cc(C(F)(F)F)c1)c1ccccc1 (centres unmarked) [drawing 305]
% Metabolism Human S9 [9]: 41.1 ± 28.9%
% Metabolism Rat S9 [10]: 2.1 ± 1.4%
% Metabolism Dog S9 [11]: 25.6 ± 17.9%
% Metabolism Mouse S9 [12]: 11.6 ± 3.0%
